What was measured:
Format in all cases: in vivo
[1] = test system: wheat (Triticum aestivum); assay: Test A postemergence; settings: Triticum aestivum, post-emergence, 240 h
Summary of the method: (§1)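 Visual injury scores from 0, no effect, to 100, complete control, were assigned versus untreated controls roughly 10 d after treatment in the greenhouse. Test chemicals, formulated with surfactant in a non-phytotoxic solvent, were applied to planted seeds as a preemergence soil spray or postemergence to one- to two-leaf plants 2 to 10 cm tall, in loam–sand soil.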

Kochia (Kochia scoparia) [2] = assay: Test A postemergence; settings: Bassia scoparia, post-emergence, 240 h
Summary of the method: as §1

[3] = test system: ryegrass, Italian (Italian ryegrass, Lolium multiflorum); assay: Test A postemergence; settings: Lolium multiflorum, post-emergence, 240 h
Summary of the method: as §1

[4] = test system: blackgrass (Alopecurus myosuroides); assay: Test A postemergence; settings: Alopecurus myosuroides, post-emergence, 240 h
Summary of the method: as §1

corn (Zea mays) = assay: Test A postemergence; settings: Zea mays, post-emergence, 240 h
Summary of the method: as §1

[5] = test system: Galium (catchweed bedstraw, Galium aparine); assay: Test A postemergence; settings: Galium, post-emergence, 240 h
Summary of the method: as §1

[6] = test system: barnyardgrass (Echinochloa crus-galli); assay: Test A postemergence; settings: Echinochloa crus-galli, post-emergence, 240 h
Summary of the method: as §1

[7] = test system: pigweed (Amaranthus retroflexus); assay: Test A postemergence; settings: Amaranthus retroflexus, post-emergence, 240 h
Summary of the method: as §1

[8] = test system: giant foxtail (Setaria faberii); assay: Test A postemergence; settings: Setaria faberi, post-emergence, 240 h
Summary of the method: as §1

[9] = test system: ragweed (common ragweed, Ambrosia elatior); assay: Test A postemergence; settings: Ambrosia artemisiifolia, post-emergence, 240 h
Summary of the method: as §1

Kochia (Kochia scoparia) [10] = assay: Test A preemergence; settings: Bassia scoparia, pre-emergence, 240 h, 0 to 100 scale where 0 is no effect and 100 is complete control, read-out: Kochia plant response rating
Summary of the method: as §1

[11] = test system: ryegrass, Italian (Italian ryegrass, Lolium multiflorum); assay: Test A preemergence; settings: Lolium multiflorum, pre-emergence, 240 h, 0 to 100 scale where 0 is no effect and 100 is complete control, read-out: Ryegrass, Italian plant response rating
Summary of the method: as §1

[12] = test system: barnyardgrass (Echinochloa crus-galli); assay: Test A preemergence; settings: Echinochloa crus-galli, pre-emergence, 240 h, 0 to 100 scale where 0 is no effect and 100 is complete control, read-out: Barnyardgrass plant response rating
Summary of the method: as §1

[13] = test system: pigweed (Amaranthus retroflexus); assay: Test A preemergence; settings: Amaranthus retroflexus, pre-emergence, 240 h, 0 to 100 scale where 0 is no effect and 100 is complete control, read-out: Pigweed plant response rating
[14] = test system: giant foxtail (Setaria faberii); assay: Test A preemergence; settings: Setaria faberi, pre-emergence, 240 h, 0 to 100 scale where 0 is no effect and 100 is complete control, read-out: Foxtail, Giant plant response rating
Summary of the method: as §1

[15] = test system: ragweed (common ragweed, Ambrosia elatior); assay: Test A preemergence; settings: Ambrosia artemisiifolia, pre-emergence, 240 h, 0 to 100 scale where 0 is no effect and 100 is complete control, read-out: Ragweed plant response rating
Summary of the method: as §1

[16] = test system: sedge, umbrella (small-flower umbrella sedge, Cyperus difformis); assay: Test B flooded paddy test; settings: Cyperus difformis, 250 g ai/ha, Flood; 0 to 100 scale where 0 is no effect and 100 is complete control; read-out: Sedge, Umbrella plant response rating
Summary of the method: (§2)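 Rating scale 0–100 (visual, vs untreated controls) after a 13–15 d greenhouse period; application to the flood layer, 3 cm above soil and maintained; plants at 2-leaf stage when treated.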

[17] = test system: barnyardgrass (Echinochloa crus-galli); assay: Test B flooded paddy test; settings: Echinochloa crus-galli, 250 g ai/ha, Flood; 0 to 100 scale where 0 is no effect and 100 is complete control; read-out: Barnyardgrass plant response rating
Summary of the method: as §2

rice (Oryra sativa) = assay: Test B flooded paddy test; settings: Oryza sativa, 250 g ai/ha, Flood; 0 to 100 scale where 0 is no effect and 100 is complete control; read-out: Rice plant response rating
Summary of the method: as §2

[18] = test system: ducksalad (Heteranthera limosa); assay: Test B flooded paddy test; settings: Heteranthera limosa, 250 g ai/ha, Flood; 0 to 100 scale where 0 is no effect and 100 is complete control; read-out: Ducksalad plant response rating
Summary of the method: as §2

[19] = 125 g ai/ha, preemergence, approx. 10 d

O=C1NC[C@H](c2csc3c2CCCC3)[C@H]1C(=O)Nc1cccc(F)c1F [Compound 1163]
60%: pest or weed control at 125 g/ha ([6]; 125 g ai/ha, postemergence, visual injury vs untreated controls after approx. 10 d, 0 = no effect, 100 = complete control, read-out: Barnyardgrass plant response rating (0 to 100 scale)) | pest or weed control at 125 g/ha [14, 19]
90%: pest or weed control at 125 g/ha [12, 19]
0%: plant injury at 125 g/ha ([1]; 125 g ai/ha, postemergence, visual injury vs untreated controls after approx. 10 d, 0 = no effect, 100 = complete control, read-out: Wheat plant response rating (0 to 100 scale)) | plant injury at 31 g/ha ([1]; Postemergence, 31 g ai/ha, visual injury after approx. 10 d, 0 to 100 scale, 0 no effect, 100 complete control, read-out: Plant response rating, Wheat) | pest or weed control at 125 g/ha (Kochia (Kochia scoparia) [2]; 125 g ai/ha, postemergence, visual injury vs untreated controls after approx. 10 d, 0 = no effect, 100 = complete control, read-out: Kochia plant response rating (0 to 100 scale)) | pest or weed control at 31 g/ha (Kochia (Kochia scoparia) [2]; Postemergence, 31 g ai/ha, visual injury after approx. 10 d, 0 to 100 scale, 0 no effect, 100 complete control, read-out: Plant response rating, Kochia) | pest or weed control at 125 g/ha ([3]; 125 g ai/ha, postemergence, visual injury vs untreated controls after approx. 10 d, 0 = no effect, 100 = complete control, read-out: Ryegrass, Italian plant response rating (0 to 100 scale)) | pest or weed control at 31 g/ha ([3]; Postemergence, 31 g ai/ha, visual injury after approx. 10 d, 0 to 100 scale, 0 no effect, 100 complete control, read-out: Plant response rating, Ryegrass, Italian) | pest or weed control at 31 g/ha ([4]; Postemergence, 31 g ai/ha, visual injury after approx. 10 d, 0 to 100 scale, 0 no effect, 100 complete control, read-out: Plant response rating, Blackgrass) | plant injury at 125 g/ha (corn (Zea mays); 125 g ai/ha, postemergence, visual injury vs untreated controls after approx. 10 d, 0 = no effect, 100 = complete control, read-out: Corn plant response rating (0 to 100 scale)) | Corn plant response rating (crop injury, 0 = no effect, 100 = complete kill) at 31 g/ha (corn (Zea mays); Postemergence, 31 g ai/ha, visual injury after approx. 10 d, 0 to 100 scale, 0 no effect, 100 complete control) | pest or weed control at 31 g/ha ([5]; Postemergence, 31 g ai/ha, visual injury after approx. 10 d, 0 to 100 scale, 0 no effect, 100 complete control, read-out: Plant response rating, Galium) | pest or weed control at 125 g/ha ([7]; 125 g ai/ha, postemergence, visual injury vs untreated controls after approx. 10 d, 0 = no effect, 100 = complete control, read-out: Pigweed plant response rating (0 to 100 scale)) | pest or weed control at 31 g/ha ([7]; Postemergence, 31 g ai/ha, visual injury after approx. 10 d, 0 to 100 scale, 0 no effect, 100 complete control, read-out: Plant response rating, Pigweed) | pest or weed control at 125 g/ha ([8]; 125 g ai/ha, postemergence, visual injury vs untreated controls after approx. 10 d, 0 = no effect, 100 = complete control, read-out: Foxtail, Giant plant response rating (0 to 100 scale)) | pest or weed control at 31 g/ha ([8]; Postemergence, 31 g ai/ha, visual injury after approx. 10 d, 0 to 100 scale, 0 no effect, 100 complete control, read-out: Plant response rating, Foxtail, Giant) | pest or weed control at 125 g/ha ([9]; 125 g ai/ha, postemergence, visual injury vs untreated controls after approx. 10 d, 0 = no effect, 100 = complete control, read-out: Ragweed plant response rating (0 to 100 scale)) | pest or weed control at 31 g/ha ([9]; Postemergence, 31 g ai/ha, visual injury after approx. 10 d, 0 to 100 scale, 0 no effect, 100 complete control, read-out: Plant response rating, Ragweed) | pest or weed control at 31 g/ha (Kochia (Kochia scoparia) [10]; 31 g ai/ha, Preemergence) | pest or weed control at 31 g/ha ([11]; 31 g ai/ha, Preemergence) | pest or weed control at 125 g/ha [11, 19] | pest or weed control at 31 g/ha ([13]; 31 g ai/ha, Preemergence) | pest or weed control at 125 g/ha [13, 19] | pest or weed control at 31 g/ha ([15]; 31 g ai/ha, Preemergence) | pest or weed control at 125 g/ha [15, 19] | pest or weed control at 250 g/ha [16] | pest or weed control at 250 g/ha (rice (Oryra sativa))
95%: pest or weed control at 250 g/ha [18]
30%: pest or weed control at 31 g/ha ([6]; Postemergence, 31 g ai/ha, visual injury after approx. 10 d, 0 to 100 scale, 0 no effect, 100 complete control, read-out: Plant response rating, Barnyardgrass) | pest or weed control at 250 g/ha [17]
10%: pest or weed control at 31 g/ha ([14]; 31 g ai/ha, Preemergence)
20%: pest or weed control at 125 g/ha ([4]; 125 g ai/ha, postemergence, visual injury vs untreated controls after approx. 10 d, 0 = no effect, 100 = complete control, read-out: Blackgrass plant response rating (0 to 100 scale)) | pest or weed control at 125 g/ha ([5]; 125 g ai/ha, postemergence, visual injury vs untreated controls after approx. 10 d, 0 = no effect, 100 = complete control, read-out: Galium plant response rating (0 to 100 scale)) | pest or weed control at 125 g/ha (Kochia (Kochia scoparia) [10]; [19])
70%: pest or weed control at 31 g/ha ([12]; 31 g ai/ha, Preemergence)
